The test system of one experiment is U87. Briefly: Clonogenic survival with radiotherapy, U87. It is filed as cell-based. The conditions noted are these: 2.5 µM or 5 µM, 24 hr, plus radiotherapy, FIG. 10. The procedure: In a first experiment, U251, U87 and T98G cell lines were treated with radiotherapy alone or with radiotherapy and EDO-S101.
For clonogenic survival, exponentially growing cells (70% confluence) were cultured in regular media and treated with EDO-S101 at the appropriate concentrations, or vehicle (final DMSO concentration of 0.1%) for 24 hr. Tumour cell irradiation was done using a 6 MV linear accelerator Elekta Synergy using a clinically calibrated irradiation field of 30 × 30 cm. Two cm thick plates of perspex were positioned above and below the cell culture flasks completely filled with medium to compensate for the build-up effect. Non-irradiated controls were handled identically to the irradiated cells with the exception of the radiation exposure. […] Colonies containing more than 50 cells were counted. The plating efficiency (PE) was calculated as the number of colonies observed/the number of cell plated. The surviving fraction was calculated as the number of colonies formed in the treated dishes compared with the number formed in the control. The survival curves were analyzed using SPSS (Chicago, IL) statistical software by means of a fit of the data by a weighted, stratified, linear regression, according to the linear-quadratic formula: S(D)/S(O)=exp-(aD+bD2).

In another experiment the test system is OCI-LY10B lymphoma cells. Briefly: Murine model for primary CNS lymphoma, intracerebral OCI-LY10B. The conditions noted are these: for tumour growth: iv days +4, +11, +18; for median survival: iv days +4, +11, +18, EDO-S101 60 mg/kg, bendamustine 50 mg/kg, controls 48 days. It counts as in vivo, mice. The procedure: The procedure of Example 3 was repeated, except the murine models were created with 1×10^5 luciferase-transfected OCI-LY10B lymphoma cells to create a model of primary CNS lymphoma. EDO-S101 (60 mg/kg body weight), bendamustine (50 mg/kg body weight) and control was administered intravenously via a tail vein to separate groups of the test mice on days +4, +11 and +18 post intracerebral implantation of the OCI-LY10B lymphoma cells. […] EDO-S101 therefore appears to be a promising treatment for primary CNS lymphoma.

In a further experiment the test system is U251. Briefly: s.c. xenograft model of GBM, U251, time to progression. It is filed as in vivo, mice. The settings on record: for time to progression of the tumours: U251G xenograft. The procedure:
Next, adopting the procedure of Example 3, s.c. xenograft models of GBMs in mice were prepared using the GBM cell lines U251 and U87.
The U251 mice prepared as above were subjected either subjected to radiotherapy (2 Gy for 5 consecutive days), treatment with EDO-S101 (60 mg/kg intravenously at days 1, 8 and 15 of the treatment cycle) or control only. Before any irradiation mice were anesthetized with a mixture of ketamine (25 mg/ml)/xylazine (5 mg/ml). Anesthetized tumor-bearing mice received a focal irradiation at the dose of 2 Gy for 5 consecutive days. Irradiation was delivered using an X-ray linear accelerator at a dose rate of 200 cGy/min at room temperature. All mice were shielded with a specially designed lead apparatus to allow irradiation to the right hind limb. Mice were kept under these conditions until all irradiation finished.
A study was made of the progression of the GBM according to the procedure of Example 3.
In a follow up experiment, U251 mice prepared in the same manner were either subjected to the current gold standard treatment of radiotherapy and temozolomide (2 Gy for 5 consecutive days and 16 mg/kg for 5 consecutive days, po), treatment with EDO-S101 (60 mg/kg, intravenously at days 1, 8 and 15 of the treatment cycle), treatment with EDO-S101 and radiotherapy (2 Gy for 5 consecutive days and 60 mg/kg, intravenously at days 1, 8 and 15 of the treatment cycle) or control.

The test system of the next experiment is NCI-60 cell lines. The conditions noted are these: read-out: median IC50 value; cited from earlier work.
The next experiment concerns T98G. As to the kind of experiment: GBM cell line viability IC50, T98G. It counts as cell-based. The procedure:
(§1) In vitro experiments were devised in which a series of GBM cell lines representative for MGMT negative and MGMT positive tumour cells were used.
(§2) Compounds: 1-100 µM EDO-S101, 1-50 µM temozolomide (TMZ), 1-50 µM temozolomide + 500 nM vorinostat, 1-40 µM bendamustine, 1-40 µM bendamustine and 500 nM vorinostat.
Twelve glioblastoma cell lines representing grade III and IV gliomas and with different expression of MGMT, drug and radiotherapy sensitivity and five patient derived glioblastoma stem, cells were used (see above). Four patient-derived glioblastoma stem cells, kindly provided from J. Gregory Cairncross, and Samuel Weiss at the Hotchkiss Brain Institute, Faculty of Medicine, University of Calgary, Calgary, Alberta, Canada and one luciferase transfected, PTC#8, from Prof Angelo Vescovi, University la Bicocca, Milan were cultured in defined culture serum free medium (SFM) and in non-adherent spheres culture. Cells were resuspended in DMEM/F12 media without serum supplemented with 20 ng/ml epidermal growth factor (Sigma-Aldrich), 20 ng/ml basic fibroblast growth factor (Sigma-Aldrich), B-27 supplement 1X (Gibco, Life Technologies), and antibiotics. Treatment with EDO-S101 was added straight after plating 3×10^3 cells in 96-well plates with the stem cells media. Spheres were counted 5 days after treatment under an inverted microscope at ×4 magnification. A sphere was counted if it had at least 15 cells.
Cells were seeded at a density of 2 × 10^4 cells/ml in 24 well plates. Cells were left to attach and grow in 5% FCS DMEM for 24 h. […] Cells trypsinized and resuspended in 1.0 ml of saline were counted using the NucleoCounterTM NC-100 (automated cell counter systems, Chemotec, Cydevang, DK) in order to evaluate cell viability. […] IC50 values were calculated by the GraFit method (Erithacus Software Limited, Staines, UK). Cell viability was measured with the 3-(4,5 dimethylthiazol-2-yl)-2,5-diphenyl tetrazolium bromide (MTT; Sigma-Aldrich) assay.
(§3) IC50 and IC20 values for all twelve cell lines against bendamustine and vorinostat were also determined as described above. […]

The next experiment relates to U251MG. Briefly: GBM cell line viability IC50, U251. The settings on record: Homo sapiens, U-251. It counts as cell-based. Here is the method:
as §1, §2
Twelve glioblastoma cell lines representing grade III and IV gliomas and with different expression of MGMT, drug and radiotherapy sensitivity and five patient derived glioblastoma stem, cells were used (see above). […] Spheres were counted 5 days after treatment under an inverted microscope at ×4 magnification. A sphere was counted if it had at least 15 cells.
Cells were seeded at a density of 2 × 10^4 cells/ml in 24 well plates. […] Cells trypsinized and resuspended in 1.0 ml of saline were counted using the NucleoCounterTM NC-100 (automated cell counter systems, Chemotec, Cydevang, DK) in order to evaluate cell viability. […] IC50 values were calculated by the GraFit method (Erithacus Software Limited, Staines, UK). Cell viability was measured with the 3-(4,5 dimethylthiazol-2-yl)-2,5-diphenyl tetrazolium bromide (MTT; Sigma-Aldrich) assay.
as §3

The mark [1] stands for this setting: drug in combination with radiotherapy 2 Gy x 5 days, EDO-S101 60 mg/kg iv days 1, 8, 15, temozolomide 16 mg/kg po x 5 days.

The term IC50 denotes the concentration at which inhibition is half-maximal.

Molecules are shown by their SMILES. Where two headings read alike, the source gives them in different places. Some results are limits rather than exact numbers.

On to `Cn1c(CCCCCCC(=O)NO)nc2cc(N(CCCl)CCCl)ccc21` [EDO-S101], for which the “% survival rate (surviving fraction) with radiotherapy versus radiotherapy alone” value with U87 is “considerably reduced”. Moreover, in the experiment on OCI-LY10B lymphoma cells, the tumour growth result is listed as “significantly suppressed tumour growth” and the median survival came out at 62 days. For the same molecule, the “time to progression of the tumours” value in the experiment with U251 (drug alone, 60 mg/kg iv days 1, 8, 15, control approximately 17-18 days) was “over 50 days”. Besides, the “time to progression of the tumours” value with U251 (setting [1]) is given as “over 50 days”. In the experiment with U251 (U251 s.c. xenograft, drug alone, FIG. 11), the “time to progression versus radiotherapy-treated tumours” value is recorded as “considerably longer”. Also, in the experiment on U251 (U251 s.c. xenograft, drug plus radiotherapy, FIG. 12), the “time to progression versus EDO-S101 alone and versus radiotherapy and temozolomide” value is “significantly longer”. Also, the IC50 with NCI-60 cell lines was 2.2 µM.

Take `Cn1c(CCCC(=O)O)nc2cc(N(CCCl)CCCl)ccc21` [bendamustine]: the IC50 with T98G (Homo sapiens, T98G) was 52 µM; in the experiment on U251MG it was 30 µM; in the experiment on NCI-60 cell lines it was 72 µM. Besides, in the experiment on OCI-LY10B lymphoma cells, the tumour growth entry was “significantly suppressed tumour growth”. For the same molecule, the median survival with OCI-LY10B lymphoma cells is on record as 54 days.

As for `Cn1nnc2c(C(N)=O)ncn2c1=O` [temozolomide], the IC50 with T98G (Homo sapiens, MGMT positive T98G glioblastoma cell line, read-out: IC50) was over 100 µM; with T98G (T98G, MGMT pos., no unit in Table 2 (µM), read-out: IC50), over 100 µM; in the experiment with U251MG (MGMT negative U251MG glioblastoma cell line, read-out: IC50), 20 µM. Besides, the “time to progression of the tumours” value in the experiment on U251 (setting [1]) came to 42 days.

The record behind these values is patent US20230049350A1, “COMPOUNDS FOR TREATING BRAIN CANCER” (Purdue Pharmaceutical Products L.P., priority 2014, published 2023).
